Assay results published in ChEMBL document CHEMBL4350961, “Discovery of Pyrrolo[3,2- d]pyrimidin-4-one Derivatives as a New Class of Potent and Cell-Active Inhibitors of P300/CBP-Associated Factor Bromodomain” (J Med Chem, 2019).
The source made the active and inactive calls.

What was measured:
[1] = system: Tyrosine-protein kinase receptor UFO (Homo sapiens), P30530 [Q764R]; assay: Inhibition of recombinant human AXL Q764R mutant (473 to end residues) at 10 uM using KKSRGDYMTMQIG as substrate measured after 40 mins in presence of [gamma33P]ATP by scintillation counting method
Sequence of Tyrosine-protein kinase receptor UFO (Homo sapiens), P30530 [Q764R] (P30530 whole entry Q764R, the tested form may be a part): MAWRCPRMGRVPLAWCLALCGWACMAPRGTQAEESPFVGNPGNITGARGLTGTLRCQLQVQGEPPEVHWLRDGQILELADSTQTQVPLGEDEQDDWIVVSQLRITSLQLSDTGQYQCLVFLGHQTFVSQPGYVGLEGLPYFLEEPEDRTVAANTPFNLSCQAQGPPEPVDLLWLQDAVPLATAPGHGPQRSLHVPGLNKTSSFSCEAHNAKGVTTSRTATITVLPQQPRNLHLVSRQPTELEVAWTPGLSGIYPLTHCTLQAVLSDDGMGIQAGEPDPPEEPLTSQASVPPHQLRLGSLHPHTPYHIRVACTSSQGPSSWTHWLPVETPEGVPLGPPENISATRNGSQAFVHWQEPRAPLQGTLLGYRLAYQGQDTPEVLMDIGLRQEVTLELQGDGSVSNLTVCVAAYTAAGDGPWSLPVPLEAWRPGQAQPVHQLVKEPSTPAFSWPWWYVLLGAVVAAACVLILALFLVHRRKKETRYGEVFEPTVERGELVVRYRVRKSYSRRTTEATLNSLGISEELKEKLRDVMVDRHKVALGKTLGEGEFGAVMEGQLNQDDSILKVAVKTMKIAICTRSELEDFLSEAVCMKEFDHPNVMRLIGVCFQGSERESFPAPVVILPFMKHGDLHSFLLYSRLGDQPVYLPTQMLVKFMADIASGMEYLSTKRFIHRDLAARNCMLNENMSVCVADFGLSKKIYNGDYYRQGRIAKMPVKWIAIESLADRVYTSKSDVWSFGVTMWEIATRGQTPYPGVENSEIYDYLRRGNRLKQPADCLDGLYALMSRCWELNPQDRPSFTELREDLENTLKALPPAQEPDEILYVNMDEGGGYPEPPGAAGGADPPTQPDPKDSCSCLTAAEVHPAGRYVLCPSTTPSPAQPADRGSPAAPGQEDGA

[2] = target: Bone morphogenetic protein receptor type-2 (Homo sapiens) (UniProt Q13873); assay: Inhibition of recombinant human BMPR2 (172 to 734 residues) at 10 uM using myelin basic protein as substrate measured after 120 mins in presence of [gamma33P]ATP by scintillation counting method
Sequence of Bone morphogenetic protein receptor type-2 (Homo sapiens) (Q13873 whole entry, the tested form may be a part): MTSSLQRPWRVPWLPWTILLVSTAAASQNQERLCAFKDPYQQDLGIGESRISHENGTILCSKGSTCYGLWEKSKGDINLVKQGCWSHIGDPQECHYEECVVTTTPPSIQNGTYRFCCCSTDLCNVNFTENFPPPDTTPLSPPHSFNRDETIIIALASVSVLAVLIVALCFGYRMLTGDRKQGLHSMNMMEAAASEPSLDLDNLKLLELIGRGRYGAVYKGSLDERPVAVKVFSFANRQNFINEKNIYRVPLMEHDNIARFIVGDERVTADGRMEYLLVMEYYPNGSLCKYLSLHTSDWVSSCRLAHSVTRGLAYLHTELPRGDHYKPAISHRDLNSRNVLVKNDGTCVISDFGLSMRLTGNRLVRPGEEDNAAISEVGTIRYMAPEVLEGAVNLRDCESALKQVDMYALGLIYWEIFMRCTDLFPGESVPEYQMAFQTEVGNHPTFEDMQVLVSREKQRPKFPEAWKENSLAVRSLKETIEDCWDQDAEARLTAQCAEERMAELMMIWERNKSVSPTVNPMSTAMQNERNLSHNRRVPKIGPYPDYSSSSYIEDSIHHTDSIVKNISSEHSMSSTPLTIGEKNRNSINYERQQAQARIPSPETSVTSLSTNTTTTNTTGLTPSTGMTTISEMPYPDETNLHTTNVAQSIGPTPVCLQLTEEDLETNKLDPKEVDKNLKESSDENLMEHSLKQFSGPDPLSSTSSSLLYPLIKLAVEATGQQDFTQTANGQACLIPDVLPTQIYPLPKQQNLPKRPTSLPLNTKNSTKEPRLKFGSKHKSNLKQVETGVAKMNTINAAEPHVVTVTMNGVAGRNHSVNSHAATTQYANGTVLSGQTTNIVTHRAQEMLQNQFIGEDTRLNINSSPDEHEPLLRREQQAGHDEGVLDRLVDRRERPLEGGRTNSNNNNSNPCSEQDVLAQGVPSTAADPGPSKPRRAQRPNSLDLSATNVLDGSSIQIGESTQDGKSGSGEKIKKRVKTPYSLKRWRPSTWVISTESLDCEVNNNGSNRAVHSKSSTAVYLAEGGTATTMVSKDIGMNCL

[3] = target: Cyclin-dependent kinase-like 1 (Homo sapiens) (UniProt Q00532); assay: Inhibition of recombinant human CDKL1 (1 to 303 residues) at 10 uM using RRRFRPASPLRGP as substrate measured after 120 mins in presence of [gamma33P]ATP by scintillation counting method
Sequence of Cyclin-dependent kinase-like 1 (Homo sapiens) (Q00532 whole entry, the tested form may be a part): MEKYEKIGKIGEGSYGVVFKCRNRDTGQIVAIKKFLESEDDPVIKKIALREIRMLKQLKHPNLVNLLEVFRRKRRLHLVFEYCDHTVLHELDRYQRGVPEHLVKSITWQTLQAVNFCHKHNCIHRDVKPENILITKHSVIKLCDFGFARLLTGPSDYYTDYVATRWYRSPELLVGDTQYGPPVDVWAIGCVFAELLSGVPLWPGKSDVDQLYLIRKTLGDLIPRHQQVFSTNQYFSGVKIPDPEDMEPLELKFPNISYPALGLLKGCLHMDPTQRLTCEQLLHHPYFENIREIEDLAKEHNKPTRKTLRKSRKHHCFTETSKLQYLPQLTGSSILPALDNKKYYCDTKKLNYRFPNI

[4] = target: Cyclin-dependent kinase 13/Cyclin-K (Homo sapiens) (UniProt Q14004+O75909); assay: Inhibition of recombinant full length human CDK13/cyclinK at 10 uM using RSRSRSRSRSRSRSR as substrate measured after 120 mins in presence of [gamma33P]ATP by scintillation counting method; type: protein-complex assay
[5] = system: CDK18/Cyclin Y (Homo sapiens), Q07002+Q8ND76 [T166M]; assay: Inhibition of recombinant full length human cyclinY/CDK18 T166M mutant at 10 uM using YRRAAVPPSPSLS as substrate measured after 40 mins in presence of [gamma33P]ATP by scintillation counting method; type: protein-complex assay
[6] = target: Serine/threonine-protein kinase 17A (Homo sapiens) (UniProt Q9UEE5); assay: Inhibition of recombinant full-length human DRAK1 at 10 uM using KKLNRTLSFAEPG as substrate measured after 40 mins in presence of [gamma33P]ATP by scintillation counting method
Sequence of Serine/threonine-protein kinase 17A (Homo sapiens) (Q9UEE5 whole entry): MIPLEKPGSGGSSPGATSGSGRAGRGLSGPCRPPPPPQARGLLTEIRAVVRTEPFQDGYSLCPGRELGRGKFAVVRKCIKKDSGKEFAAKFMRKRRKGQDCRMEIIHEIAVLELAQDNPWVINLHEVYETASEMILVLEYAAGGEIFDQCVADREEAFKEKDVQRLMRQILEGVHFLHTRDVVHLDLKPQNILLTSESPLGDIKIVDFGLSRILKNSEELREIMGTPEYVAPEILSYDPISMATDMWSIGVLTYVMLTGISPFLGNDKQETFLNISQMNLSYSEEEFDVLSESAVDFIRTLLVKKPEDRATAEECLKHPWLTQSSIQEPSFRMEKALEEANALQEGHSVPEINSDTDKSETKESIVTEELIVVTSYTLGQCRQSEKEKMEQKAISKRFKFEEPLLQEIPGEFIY

[7] = target: Dual specificity tyrosine-phosphorylation-regulated kinase 2 (Homo sapiens) (UniProt Q92630); assay: Inhibition of recombinant full-length human DYRK2 at 10 uM using casein as substrate measured after 40 mins in presence of [gamma33P]ATP by scintillation counting method
[8] = target: Ephrin type-B receptor 1 (Homo sapiens) (UniProt P54762); assay: Inhibition of recombinant human EphB1 (564 to end residues) at 10 uM using KVEKIGEGTYGVVYK as substrate measured after 40 mins in presence of [gamma33P]ATP by scintillation counting method
[9] = target: Interleukin-1 receptor-associated kinase 1 (Homo sapiens) (UniProt P51617); assay: Inhibition of recombinant human IRAK1 (194 to end residues) at 10 uM using myelin basic protein as substrate measured after 40 mins in presence of [gamma33P]ATP by scintillation counting method
[10] = target: Tyrosine-protein kinase Lck (Homo sapiens) (UniProt P06239); assay: Inhibition of recombinant full-length human activated Lck at 10 uM using KVEKIGEGTYGVVYK as substrate measured after 40 mins in presence of [gamma33P]ATP by scintillation counting method
[11] = target: Serine/threonine-protein kinase STK11 (Homo sapiens) (UniProt Q15831); assay: Inhibition of recombinant full-length human LKB1 at 10 uM using LSNLYHQGKFLQTFCGSPLYRRR as substrate measured after 40 mins in presence of [gamma33P]ATP by scintillation counting method
[12] = target: Serine/threonine-protein kinase 10 (Homo sapiens) (UniProt O94804); assay: Inhibition of recombinant human LOK (1 to 348 residues) at 10 uM using RLGRDKYKTLRQIRQ as substrate measured after 40 mins in presence of [gamma33P]ATP by scintillation counting method
Sequence of Serine/threonine-protein kinase 10 (Homo sapiens) (O94804 whole entry, looked up, the tested form may be a part): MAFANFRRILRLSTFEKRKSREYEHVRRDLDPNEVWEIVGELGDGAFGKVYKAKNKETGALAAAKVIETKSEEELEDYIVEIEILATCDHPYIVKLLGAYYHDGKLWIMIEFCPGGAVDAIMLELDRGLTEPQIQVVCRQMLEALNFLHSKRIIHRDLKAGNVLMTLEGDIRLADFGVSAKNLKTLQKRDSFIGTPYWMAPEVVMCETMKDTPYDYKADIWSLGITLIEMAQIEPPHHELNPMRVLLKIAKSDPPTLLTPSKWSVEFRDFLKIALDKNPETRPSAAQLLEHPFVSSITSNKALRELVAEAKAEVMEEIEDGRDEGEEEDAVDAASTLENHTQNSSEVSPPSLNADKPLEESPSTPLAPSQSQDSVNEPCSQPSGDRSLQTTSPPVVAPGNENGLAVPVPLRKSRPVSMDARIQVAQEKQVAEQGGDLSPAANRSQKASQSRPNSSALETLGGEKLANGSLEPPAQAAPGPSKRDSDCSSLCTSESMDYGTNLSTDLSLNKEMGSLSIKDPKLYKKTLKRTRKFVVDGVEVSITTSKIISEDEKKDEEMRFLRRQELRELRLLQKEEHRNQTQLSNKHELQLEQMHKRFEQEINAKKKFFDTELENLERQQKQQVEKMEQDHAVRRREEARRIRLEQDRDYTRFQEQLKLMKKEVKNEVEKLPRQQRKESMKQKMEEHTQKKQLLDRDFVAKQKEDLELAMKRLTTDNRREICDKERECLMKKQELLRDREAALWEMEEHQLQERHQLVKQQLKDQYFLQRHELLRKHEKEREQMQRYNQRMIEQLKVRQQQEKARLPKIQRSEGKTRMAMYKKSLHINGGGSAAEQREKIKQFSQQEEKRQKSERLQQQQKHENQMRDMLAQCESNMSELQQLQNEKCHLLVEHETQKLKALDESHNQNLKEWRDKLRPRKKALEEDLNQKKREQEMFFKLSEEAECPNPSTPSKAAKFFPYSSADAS

[13] = target: Mitogen-activated protein kinase 1 (Mus musculus) (UniProt P63085); assay: Inhibition of mouse MAPK2 at 10 uM
Sequence of Mitogen-activated protein kinase 1 (Mus musculus) (P63085 whole entry): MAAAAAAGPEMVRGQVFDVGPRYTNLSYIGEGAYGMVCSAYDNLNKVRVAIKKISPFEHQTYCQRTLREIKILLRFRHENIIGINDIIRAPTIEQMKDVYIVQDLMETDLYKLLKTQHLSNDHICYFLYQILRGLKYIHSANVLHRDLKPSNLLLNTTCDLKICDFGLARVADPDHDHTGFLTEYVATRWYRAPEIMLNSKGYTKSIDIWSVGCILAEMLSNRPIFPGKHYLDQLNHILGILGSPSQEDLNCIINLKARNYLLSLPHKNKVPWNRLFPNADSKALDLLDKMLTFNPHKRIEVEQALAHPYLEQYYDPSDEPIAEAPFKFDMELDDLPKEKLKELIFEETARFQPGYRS

[14] = target: MAP/microtubule affinity-regulating kinase 4 (Homo sapiens) (UniProt Q96L34); assay: Inhibition of recombinant full-length human MARK4 at 10 uM using KKKVSRSGLYRSPSMPENLNRPR as substrate measured after 40 mins in presence of [gamma33P]ATP by scintillation counting method
Sequence of MAP/microtubule affinity-regulating kinase 4 (Homo sapiens) (Q96L34 whole entry): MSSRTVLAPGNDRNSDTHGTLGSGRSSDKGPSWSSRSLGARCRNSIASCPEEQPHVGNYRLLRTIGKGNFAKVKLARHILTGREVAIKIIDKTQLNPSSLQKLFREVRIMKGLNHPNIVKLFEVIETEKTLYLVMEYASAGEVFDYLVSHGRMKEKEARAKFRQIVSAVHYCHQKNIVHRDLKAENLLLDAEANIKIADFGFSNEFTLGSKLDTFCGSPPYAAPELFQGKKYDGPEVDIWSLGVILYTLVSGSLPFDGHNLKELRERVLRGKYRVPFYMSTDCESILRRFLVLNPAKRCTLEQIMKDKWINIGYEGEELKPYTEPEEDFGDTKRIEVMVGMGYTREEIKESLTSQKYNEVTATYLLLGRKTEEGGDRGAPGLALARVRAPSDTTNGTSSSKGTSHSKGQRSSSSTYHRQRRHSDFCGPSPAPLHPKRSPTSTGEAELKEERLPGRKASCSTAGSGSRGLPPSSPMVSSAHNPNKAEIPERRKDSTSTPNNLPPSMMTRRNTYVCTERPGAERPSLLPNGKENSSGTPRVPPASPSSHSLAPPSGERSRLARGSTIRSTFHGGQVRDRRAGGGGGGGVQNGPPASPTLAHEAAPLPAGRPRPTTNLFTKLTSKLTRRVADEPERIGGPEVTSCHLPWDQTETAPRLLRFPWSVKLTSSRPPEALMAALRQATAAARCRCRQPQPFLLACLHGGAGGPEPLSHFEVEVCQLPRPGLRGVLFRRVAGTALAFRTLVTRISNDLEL

[15] = target: Mitogen-activated protein kinase kinase kinase 2 (Homo sapiens) (UniProt Q9Y2U5); assay: Inhibition of recombinant full-length human MEKK2 at 10 uM using myelin basic protein as substrate measured after 40 mins in presence of [gamma33P]ATP by scintillation counting method
[16] = target: Protein kinase C zeta type (Homo sapiens) (UniProt Q05513); assay: Inhibition of recombinant human PKCzeta (2 to end residues) at 10 uM using ERMRPRKRQGSVRRRV as substrate measured after 40 mins in presence of [gamma33P]ATP by scintillation counting method
[17] = target: Protein-tyrosine kinase 2-beta (Homo sapiens) (UniProt Q14289); assay: Inhibition of recombinant full-length human Pyk2 at 10 uM using poly(Glu, Tyr) 4:1 as substrate measured after 40 mins in presence of [gamma33P]ATP by scintillation counting method
[18] = target: Ribosomal protein S6 kinase alpha-1 (Homo sapiens) (UniProt Q15418); assay: Inhibition of recombinant full-length human Rsk1 at 10 uM using KKKNRTLSVA as substrate measured after 40 mins in presence of [gamma33P]ATP by scintillation counting method
[19] = target: Mitogen-activated protein kinase 11 (Homo sapiens) (UniProt Q15759); assay: Inhibition of recombinant full-length human SAPK2b at 10 uM using myelin basic protein as substrate measured after 40 mins in presence of [gamma33P]ATP by scintillation counting method
[20] = target: Tau-tubulin kinase 1 (Homo sapiens) (UniProt Q5TCY1); assay: Inhibition of human TTBK1 (1 to 479 residues) using Casein as substrate measured after 40 mins in presence of [gamma33P]ATP by scintillation counting method

Measured: inhibition

CN1C[C@H](Nc2nc3cc[nH]c3c(=O)n2C)C[C@H](c2ccc3c(c2)OCCO3)C1
inactive: all assays above
